Assay results reported in PubChem BioAssay (NCI).
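Tested at 5 concentrations; 48 h exposure; 96-well plates; endpoints linearly interpolated, else capped at highest concentration. GI50: concentration for 50% inhibition of growth. The concentration for full growth arrest is given as TGI.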

Key:
Assay in all cases: growth of human tumour cells (NCI), 48 h
[1] = test system: NCI-H23 lung
[2] = test system: UO-31 renal
[3] = test system: CCRF-CEM leukemia
[4] = test system: UACC-62 melanoma
[5] = test system: SNB-75 CNS
[6] = test system: SF-295 CNS
[7] = test system: MOLT-4 leukemia
[8] = test system: COLO 205 colon
[9] = test system: HOP-62 NSCLC
[10] = test system: RXF 393 renal

SMILES | TGI [1] [µM] | TGI [2] [µM] | TGI [3] [µM] | TGI [4] [µM] | TGI [5] [µM] | TGI [6] [µM] | TGI [7] [µM] | TGI [8] [µM] | TGI [9] [µM] | TGI [10] [µM] | GI50 [1] [µM] | GI50 [2] [µM] | GI50 [3] [µM] | GI50 [4] [µM] | GI50 [5] [µM] | GI50 [6] [µM] | GI50 [7] [µM] | GI50 [8] [µM] | GI50 [10] [µM]
C=C1CC2(C)CCC(OC(=O)C3(C)OC3C)C(C)(OC(C)=O)C2CC1=C(C)C (configuration not stated) | > 100 | > 100 | > 100 | > 100 | > 100 | > 100 | > 100 | > 100 | > 100 | > 100 |  |  |  |  |  |  |  |  | 
COc1ccc2c(c1)C(=O)/C(=C/c1ccccc1)C2 | > 100 | > 100 | > 100 | > 100 | > 100 | > 100 | > 100 |  | > 100 | > 100 |  |  |  |  |  |  |  |  | 
COc1cc(CN(C)N2C(=O)c3cccc4cc([N+](=O)[O-])cc(c34)C2=O)cc(OC)c1OC | > 100 | > 100 | > 100 | > 100 | 60.1 | > 100 | > 100 | > 100 | 51.9 | 90.3 |  |  |  |  |  |  |  |  | 
O=c1n(Cc2ccccc2)c2ccccc2n1CC1CS1 (configuration not stated) |  | > 100 | > 100 | > 100 | > 100 | > 100 | > 100 | > 100 | > 100 |  |  |  |  |  |  |  |  |  | 
CCNc1nc2c(=O)n(C)c(=O)n(C)c2s1 | > 100 | > 100 | > 100 | > 100 | > 100 | > 100 | > 100 | > 100 | > 100 | > 100 |  |  |  |  |  |  |  |  | 
CC12CCC3C(CCC4(O)C=CCCC34C=O)C1(O)CC(O)C2c1ccc(=O)oc1 (configuration not stated) | 0.12 | 0.141 | 10.1 | 0.145 | 0.246 | 0.149 | 0.394 | 0.381 | 0.0954 | 0.0693 |  |  |  |  |  |  |  |  | 
Cc1cc(C)c(S(=O)(=O)N(CCCCCCN)OCCCON(CCCCCCN)S(=O)(=O)c2c(C)cc(C)cc2C)c(C)c1 | 3.11 | 4.04 | > 100 | 3.15 | 3.17 | 3.41 |  | 3.76 | 3.6 | 3.18 |  |  |  |  |  |  |  |  | 
CCOC(=O)c1csc(NC(=O)CCN2CCOCC2)n1 | > 100 | > 100 | > 100 | > 100 |  | > 100 | 81.1 | > 100 | > 100 | > 100 |  |  |  |  |  |  |  |  | 
O=C(NC/C=C/CO)c1ccccc1 | > 100 | > 100 | > 100 | > 100 | > 100 | > 100 | > 100 | > 100 | > 100 | > 100 |  |  |  |  |  |  |  |  | 
COc1ccc(-c2nnc3c4ccccc4sn23)cc1 | > 100 | 80.5 | 33.7 | > 100 | 87.3 |  | > 100 | > 100 | > 100 | 82.5 |  |  |  |  |  |  |  |  | 
Fc1cc(C2=Nn3c(nnc3-c3cc(F)c(Cl)cc3Cl)SC2)c(Cl)cc1Cl | > 100 | > 100 | > 100 | 38.6 | > 100 | 51.9 | 74.2 | 43.1 |  | 62.5 | 21.8 | 31.3 | 22 | 13.3 | 26.2 | 20.3 | 16.9 | 19 | 23.2
O=C1CNC(=O)N1 | > 1120 | > 1120 | > 954 | > 1120 | > 1120 | > 1120 | > 1120 | > 1120 | > 1120 | > 1120 |  |  |  |  |  |  |  |  | 
CC1(C)CCCC2(C)[C@@H]1CC[C@]13C[C@](C)(CC[C@@H]21)[C@@H]3CO (some centres not stated) | > 100 | > 100 | > 100 | > 100 | > 100 | > 100 | > 100 | > 100 | > 100 | > 100 |  |  |  |  |  |  |  |  | 
